Test [1] has as its system BrdU-positive cells in the boundary around the lesion. Nature of the test: BrdU immunostaining, proliferating cells around the lesion. The following applies: 14 days after ICH; vs control group; P<0.05. It counts as in vivo, rat.
In test [2] the test system is Rat ICH Model. In words: Striatal tissue loss (H & E staining, image analysis) in rat ICH model. It counts as in vivo. The following applies: 14 days after ICH; relative to contralateral striatum; mean±standard error; mannitol 1.5 g/kg iv, 1 million cells intraarterial.
Method: Thirty-six male Wistar rats weighing from 270 to 320 grams were used for intracerebral hemorrhage studies. Stereotactic stabilization and localization were used in the rats under general anesthesia as previously described (Seyfried et al., 2006). ICH was induced by injecting 100 μl of autologous blood, obtained from the femoral vein, into the right striatum at a steady infusion rate of 10 μl per minute (Seyfried et al., 2004). Twenty four hours after ICH, the animals were divided into four experimental groups. Group 1 received only intraarterial (via internal carotid artery) injection of 1 million human primary fibroblasts in phosphate-buffered saline (PBS) as a control. Group 2 received intravenous injection of mannitol at a dose of 1.5 g/kg in PBS via the tail vein. Group 3 received intraarterial (internal carotid artery) injection of 1 million hBMSCs in PBS. Group 4 received intravenous injection of mannitol at a dose of 1.5 g/kg followed 10 minutes later by intraarterial injection of 1 million hBMSCs in PBS. All treatments were administered 24 hours after induction of ICH. All rats also received a daily intraperitoneal injection of 100 mg/kg BrdU starting at day 1 after ICH for 14 days.
Histology and immunohistochemistry. […] Percentage of the striatal tissue loss compared to the contralateral striatum was calculated using an image analysis system (Data Translation, Marlboro, Mass.). […]
The subject of test [3] is Rat Intracerebral Hemorrhage (ICH) Model. Nature of the test: Neurological severity score (NSS) test in rat ICH model. It counts as in vivo. The following applies: end of second week (day 14) after ICH; vs human fibroblast control group; P<0.05 significant. As to the method: (§1) Functional neurological tests. Functional neurological outcomes were measured by the neurological severity score test (NSS) (Chen et al., 2001) and the corner turn test (Zhang et al., 2002), as previously described in Seyfried et al., 2006. Statistical analysis. Statistical analysis of functional scores was performed using the Student's two-tailed t-test for independent samples.

The test system is the same in test [4]. Nature of the test: Corner turn test in rat ICH model. It counts as in vivo. To be noted: end of second week (day 14) after ICH; vs human fibroblast control group; P<0.05 significant. The procedure:
as §1

Each structure is given as a SMILES string.

Turning to `OC[C@@H](O)[C@@H](O)[C@H](O)[C@H](O)CO` [mannitol], the “BrdU positive staining cells around the injured site” value in test [1] is reported as “significantly increased the BrdU labeling”. Also, the “percentage loss of striatal tissues on the side of hemorrhage” value in test [2] amounted to 25.9±1.75%. The “functional neurological outcome assessed by NSS” value in test [3] was “failed to show any statistically significant neurological improvement”. Moreover, in test [4], the “functional neurological outcome assessed by corner turn test” value is listed as “failed to show any statistically significant neurological improvement”.

For the origin of these results see patent publication US20110158969A1, “COMPOSITIONS AND METHODS FOR USING STROMAL CELLS TO ENHANCE TREATMENT OF CENTRAL NERVOUS SYSTEM INJURIES” (HENRY FORD HEALTH SYSTEM, priority 2008, published 2011).
